Reference: PubChem BioAssay AID1259407 (Chemical Carcinogenesis Research Information System (CCRIS), 2018)
Activity calls are given as the source filed them. The rule behind the calls is not given here.

Test system: CCRIS mutagenicity, Ames/micronucleus/aberration tests
Assay: CCRIS mutagenicity studies
[1] = Test System: AMES SALMONELLA TYPHIMURIUM, Strain/Indicator: TA98, Metabolic Activation: NONE, Method: PREINCUBATION
[2] = Test System: AMES SALMONELLA TYPHIMURIUM, Strain/Indicator: TA100, Metabolic Activation: NONE, Method: PREINCUBATION
[3] = Test System: AMES SALMONELLA TYPHIMURIUM, Strain/Indicator: TA1535, Metabolic Activation: NONE, Method: PREINCUBATION

Measured: mutagenic call

CC(C)C(C)(C)C(C)(C)C(C)(C)S
inactive: Test System: AMES SALMONELLA TYPHIMURIUM, Strain/Indicator: TA97, Metabolic Activation: HAMSTER, LIVER, S-9, AROCLOR 1254 (10%), Method: PREINCUBATION inactive; negative | Test System: AMES SALMONELLA TYPHIMURIUM, Strain/Indicator: TA97, Metabolic Activation: HAMSTER, LIVER, S-9, AROCLOR 1254 (10 OR 30%), Method: PREINCUBATION inactive; negative | Test System: AMES SALMONELLA TYPHIMURIUM, Strain/Indicator: TA97, Metabolic Activation: HAMSTER, LIVER, S-9, AROCLOR 1254 (30%), Method: PREINCUBATION inactive; negative | Test System: AMES SALMONELLA TYPHIMURIUM, Strain/Indicator: TA97, Metabolic Activation: NONE, Method: PREINCUBATION inactive; negative | Test System: AMES SALMONELLA TYPHIMURIUM, Strain/Indicator: TA97, Metabolic Activation: RAT, LIVER, S-9, AROCLOR 1254 (10 OR 30%), Method: PREINCUBATION inactive; negative | Test System: AMES SALMONELLA TYPHIMURIUM, Strain/Indicator: TA98, Metabolic Activation: HAMSTER, LIVER, S-9, AROCLOR 1254 (10 OR 30%), Method: PREINCUBATION inactive; negative | [1] inactive; negative | Test System: AMES SALMONELLA TYPHIMURIUM, Strain/Indicator: TA98, Metabolic Activation: RAT, LIVER, S-9, AROCLOR 1254 (10 OR 30%), Method: PREINCUBATION inactive; negative | Test System: AMES SALMONELLA TYPHIMURIUM, Strain/Indicator: TA100, Metabolic Activation: HAMSTER, LIVER, S-9, AROCLOR 1254 (10 OR 30%), Method: PREINCUBATION inactive; negative | [2] inactive; negative | Test System: AMES SALMONELLA TYPHIMURIUM, Strain/Indicator: TA100, Metabolic Activation: RAT, LIVER, S-9, AROCLOR 1254 (10 OR 30%), Method: PREINCUBATION inactive; negative | Test System: AMES SALMONELLA TYPHIMURIUM, Strain/Indicator: TA1535, Metabolic Activation: HAMSTER, LIVER, S-9, AROCLOR 1254 (10 OR 30%), Method: PREINCUBATION inactive; negative | [3] inactive; negative | Test System: AMES SALMONELLA TYPHIMURIUM, Strain/Indicator: TA1535, Metabolic Activation: RAT, LIVER, S-9, AROCLOR 1254 (10 OR 30%), Method: PREINCUBATION inactive; negative

O=C(OCC1CCC2OC2C1)C1CCC2OC2C1 (stereo not given)
inactive: Test System: AMES SALMONELLA TYPHIMURIUM, Strain/Indicator: TA97A, Metabolic Activation: NONE, Method: STANDARD PLATE inactive; negative | Test System: AMES SALMONELLA TYPHIMURIUM, Strain/Indicator: TA97A, Metabolic Activation: RAT LIVER S-9, PHENOBARBITAL AND BETA-NAPHTHOFLAVONE (10%), Method: STANDARD PLATE inactive; negative | Test System: AMES SALMONELLA TYPHIMURIUM, Strain/Indicator: TA98, Metabolic Activation: NONE, Method: STANDARD PLATE inactive; negative | Test System: AMES SALMONELLA TYPHIMURIUM, Strain/Indicator: TA98, Metabolic Activation: RAT LIVER S-9, PHENOBARBITAL AND BETA-NAPHTHOFLAVONE (10%), Method: STANDARD PLATE inactive; negative | Test System: AMES SALMONELLA TYPHIMURIUM, Strain/Indicator: TA100, Metabolic Activation: NONE, Method: STANDARD PLATE inactive; negative | Test System: AMES SALMONELLA TYPHIMURIUM, Strain/Indicator: TA102, Metabolic Activation: NONE, Method: STANDARD PLATE inactive; negative | Test System: AMES SALMONELLA TYPHIMURIUM, Strain/Indicator: TA102, Metabolic Activation: RAT LIVER S-9, PHENOBARBITAL AND BETA-NAPHTHOFLAVONE (10%), Method: STANDARD PLATE inactive; negative
active: Test System: AMES SALMONELLA TYPHIMURIUM, Strain/Indicator: TA100, Metabolic Activation: RAT LIVER S-9, PHENOBARBITAL AND BETA-NAPHTHOFLAVONE (10%), Method: STANDARD PLATE active; positive

CC[C@H](C)[C@H]1O[C@]2(C=C[C@@H]1C)C[C@@H]1C[C@@H](C/C=C(\C)[C@@H](O[C@H]3C[C@H](OC)[C@@H](O[C@H]4C[C@H](OC)[C@@H](NC)[C@H](C)O4)[C@H](C)O3)[C@@H](C)/C=C/C=C3\CO[C@@H]4[C@H](O)C(C)=C[C@@H](C(=O)O1)[C@]34O)O2
inactive: End Point: Ames Salmonella typhimurium, Test System: TA97a, Metabolic Activation: None inactive; negative | End Point: Ames Salmonella typhimurium, Test System: TA97a, Metabolic Activation: S-9 inactive; negative | End Point: Ames Salmonella typhimurium, Test System: TA98, Metabolic Activation: None inactive; negative | End Point: Ames Salmonella typhimurium, Test System: TA98, Metabolic Activation: S-9 inactive; negative | End Point: Ames Salmonella typhimurium, Test System: TA100, Metabolic Activation: None inactive; negative | End Point: Ames Salmonella typhimurium, Test System: TA100, Metabolic Activation: S-9 inactive; negative | End Point: Ames Salmonella typhimurium, Test System: TA1535, Metabolic Activation: None inactive; negative | End Point: Ames Salmonella typhimurium, Test System: TA1535, Metabolic Activation: S-9 inactive; negative | End Point: E. coli, Test System: WP2, Metabolic Activation: None inactive; negative | End Point: E. coli, Test System: WP2, Metabolic Activation: S-9 inactive; negative | End Point: E. coli, Test System: WP2uvrA pKM101, Metabolic Activation: None inactive; negative | End Point: E. coli, Test System: WP2uvrA pKM101, Metabolic Activation: S-9 inactive; negative | End Point: E. coli, Test System: WP2uvrA, Metabolic Activation: None inactive; negative | End Point: E. coli, Test System: WP2uvrA, Metabolic Activation: S-9 inactive; negative | End Point: Gene mutation, Test System: Chinese hamster V79 lung fibroblasts, Metabolic Activation: None inactive; negative | End Point: Gene mutation, Test System: Chinese hamster V79 lung fibroblasts, Metabolic Activation: S-9 inactive; negative | End Point: In vitro chromosomal aberrations, Test System: Chinese hamster ovary (CHO-WBL) cells, Metabolic Activation: None inactive; negative | End Point: In vitro chromosomal aberrations, Test System: Chinese hamster ovary (CHO-WBL) cells, Metabolic Activation: S-9 inactive; negative | End Point: In vivo chromosomal aberrations, Test System: Bone marrow cells, Species: Mouse, Route: Oral inactive; negative

O=C(O)c1ccc(S(=O)(=O)N(Cl)Cl)cc1
inactive: Test System: AMES SALMONELLA TYPHIMURIUM, Strain/Indicator: TA98, Metabolic Activation: HAMSTER, LIVER, S-9, AROCLOR 1254 (10%), Method: PREINCUBATION inactive; negative | [1] inactive; negative | Test System: AMES SALMONELLA TYPHIMURIUM, Strain/Indicator: TA98, Metabolic Activation: RAT, LIVER, S-9, AROCLOR 1254 (10%), Method: PREINCUBATION inactive; negative | Test System: AMES SALMONELLA TYPHIMURIUM, Strain/Indicator: TA100, Metabolic Activation: HAMSTER, LIVER, S-9, AROCLOR 1254 (10%), Method: PREINCUBATION inactive; negative | [2] inactive; negative | Test System: AMES SALMONELLA TYPHIMURIUM, Strain/Indicator: TA100, Metabolic Activation: RAT, LIVER, S-9, AROCLOR 1254 (10%), Method: PREINCUBATION inactive; negative | Test System: AMES SALMONELLA TYPHIMURIUM, Strain/Indicator: TA1535, Metabolic Activation: HAMSTER, LIVER, S-9, AROCLOR 1254 (10%), Method: PREINCUBATION inactive; negative | [3] inactive; negative | Test System: AMES SALMONELLA TYPHIMURIUM, Strain/Indicator: TA1535, Metabolic Activation: RAT, LIVER, S-9, AROCLOR 1254 (10%), Method: PREINCUBATION inactive; negative | Test System: AMES SALMONELLA TYPHIMURIUM, Strain/Indicator: TA1537, Metabolic Activation: HAMSTER, LIVER, S-9, AROCLOR 1254 (10%), Method: PREINCUBATION inactive; negative | Test System: AMES SALMONELLA TYPHIMURIUM, Strain/Indicator: TA1537, Metabolic Activation: NONE, Method: PREINCUBATION inactive; negative | Test System: AMES SALMONELLA TYPHIMURIUM, Strain/Indicator: TA1537, Metabolic Activation: RAT, LIVER, S-9, AROCLOR 1254 (10%), Method: PREINCUBATION inactive; negative

Cc1ccc2nc3n(C)c4ccccc4c(C)c-3c2c1
active: Test System: AMES SALMONELLA TYPHIMURIUM, Strain/Indicator: TA97, Metabolic Activation: RAT, LIVER, S-9, AROCLOR 1254, Method: STANDARD PLATE active; positive | Test System: AMES SALMONELLA TYPHIMURIUM, Strain/Indicator: TA98, Metabolic Activation: RAT, LIVER, S-9, AROCLOR 1254, Method: STANDARD PLATE active; positive
